In patent US20180256495A1 (MEDRx Co., Ltd., priority 2008, published 2018):
Read-outs that look alike come from different tables or passages of the source.

Assays:
[1] = cited from earlier work; for logP (Log P of organic acid, Calculated) / logP of organic acid (calc.) / Log P of organic acid (calc.): organic acid itself; for logP (calc.): basic drug itself, value published in PubMed; for log P: lipid solubility of the named drug or organic acid itself
[2] = State of the liquid preparation (precipitation, homogeneity, solubility or dispersion of the salt)
[3] = Evaluation test of transdermal absorbability (skin penetrability) with a Franz diffusion cell; type: in vitro ADME; conditions: free basic drug, liquid preparation 2 w/w %, rat skin, 32° C.
[4] = stated in brackets in the synthesis examples; cited from earlier work
[5] = wrapped cell, full remark: tendency of salt to be divided into two layers

Row | SMILES | logP (Log P of organic acid, Calculated) ([1]; value from PubMed) | Log P of organic acid (calc.) ([1]; value from PubMed) | Penetrated Amount (amount of skin-penetrated drug during 3 hours) [3] [μg/cm^2] | logP of organic acid (calc.) ([1]; value from PubMed) | other results
1 | CCCCC(CC)C(=O)O (stereo not drawn) [2-ethylhexanoic acid] | 2.7 |  |  |  | 
2 | CC(O)CC(=O)O (stereo not drawn) [3-hydroxybutyric acid] | −0.5 |  |  |  | 
3 | CC(O)C(=O)O.CCN(CC)CC(=O)Nc1c(C)cccc1C [Lactic acid salt of lidocaine, lactic acid salt of lidocaine] |  |  |  |  | Remarks, Test Example 7: 2% liquid preparation (solvent system) ([2]; wrapped cell, full remark: homogeneously dispersed solution): homogeneously; Remarks, Example 13: 20% viscous liquid preparation (liquid paraffin) [2, 5]: tendency of salt to; Remarks, Example 14: 20% viscous liquid preparation (solvent + liquid paraffin) [2, 5]: tendency of salt to
4 | CC(=O)NCC(=O)O [N-acetylglycine] |  | −3.1 |  |  | logP of organic acid (calc.) [1]: −3.1
5 | CC(=O)Oc1ccccc1C(=O)O [acetylsalicylic acid] | 1.4 |  |  |  | 
6 | CN(C)CCC=C1c2ccccc2CCc2ccccc21 [amitriptyline, reference compound] |  |  | 7 |  | logP (calc.) [1]: 4.9; log P [1]: 4.9
7 | CCc1ccc(C(=O)C(C)CN2CCCCC2)cc1 (stereo not drawn) [eperisone, reference compound] |  |  | 14 |  | logP (calc.) [1]: 3.6
8 | CN(C)CCCN1c2ccccc2CCc2ccccc21 [imipramine] |  |  | 10 |  | 
9 | CC(C)CCCCCCCCCCCCCCC(=O)O [isostearic acid] | 7 | 7 |  | 7 | logP of organic acid (calc.) [1]: 7
10 | CC(=O)CCC(=O)O [levulinic acid] | −0.4 | −0.4 |  | −0.4 | logP of organic acid (calc.) [1]: −0.4
11 | COCC(=O)O [methoxyacetic acid] | −0.6 | −0.6 |  | −0.6 | logP of organic acid (calc.) [1]: −0.6; Remarks (state of the liquid preparation) ([2]; morphine 2 w/w % liquid preparation with the row's acid, wrapped cell 'small amount of' + 'precipitation' = small amount of white precipitation remained): homogeneous solution
12 | CCCCCCCC(=O)O [octanoic acid] |  | 3 |  | 3 | logP of organic acid (calc.) [1]: 3
13 | O=C(O)c1ccc(O)cc1 [p-hydroxybenzoic acid] | 1.2 |  |  |  | 
14 | CC(C)=CCN1CCC2(C)c3cc(O)ccc3CC1C2C (stereo not drawn) [pentazocine, reference compound] |  |  | 40 |  | logP (calc.) [1]: 3.7; log P [1]: 3.7; pKa [4]: 8.0
15 | CCC(=O)O [propionic acid] |  | 0.2 |  | 0.2 | 
16 | O=C(O)c1ccccc1O [salicylic acid] | 2.4 | 2.4 |  | 2.4 | 
17 | Cc1ccc(C(=O)C(C)CN2CCCCC2)cc1 (stereo not drawn) [tolperisone, reference compound] |  |  | 26 |  | logP (calc.) [1]: 3.1
18 | COc1cccc(C2(O)CCCCC2CN(C)C)c1 (stereo not drawn) [tramadol, reference compound] |  |  | 122 |  | logP (calc.) [1]: 2.4; log P [1]: 2.4
